Reference: patent publication US20220096411A1, “COMBINING METABOLIC STIMULATION AND AMINO ACIDS TO SENSITIZE TOLERANT BACTERIA TO ANTIBIOTICS” (priority 2019, published 2022)

Tests used:
[1] = tested on: Escherichia coli K12 strain MG1655; assay: Killing assay (CFU) of tolerant stationary phase cultures; assay type: cell-based; settings: for ability of individual carbon source to restore β-lactam antibiotic sensitivity (CFU/mL): tolerant cultures grown in 100% LB medium, FIG. 5
[2] = tested on: E. coli genetic knockout ΔdadA; assay: Ampicillin sensitization of knockout strain unable to catabolize D-alanine into pyruvate; assay type: cell-based, Escherichia coli; settings: FIG. 2A; for sensitivity of tolerant ΔdadA bacteria to ampicillin on amino acid supplementation alone: no pyruvate; for potentiation of ampicillin sensitivity of ΔdadA strain by amino acid: strain supplemented with pyruvate
[3] = tested on: Escherichia coli K12 strain MG1655; assay: MIC determination (metabolite-enabled MIC from optical density dose-response); assay type: cell-based; settings: for change of ampicillin MIC on amino acid supplementation: across all tested growth-supporting metabolites (carbon sources), FIG. 2B; for metabolite-enabled MIC of β-lactams upon metabolite supplementation: ampicillin, carbenicillin, mecillinam, penicillin, 1% LB; for metabolite-enabled MIC of β-lactams upon metabolite supplementation / metabolite-enabled MIC, D-isomer compared with L-isomer: metabolite 10 mM; for metabolite-enabled MIC, D-isomer compared with L-isomer: β-lactams of FIG. 1B; for potentiation of the antibiotic by D-amino acids: with pyruvate (FIG. 2E) or without metabolic stimulant (FIG. 2F), ampicillin potentiated, comparators D-cycloserine, ciprofloxacin, gentamicin are the non-β-lactams
[4] = tested on: Escherichia coli K12 strain MG1655; assay type: cell-based
[5] = tested on: clinical isolate of Escherichia coli (isolate DICON-146); assay: Killing assay, ampicillin-resistant ESBL clinical isolate in stationary phase; assay type: cell-based; settings: D-methionine added on top of sulbactam and pyruvate; FIG. 3C

What does the source list for `C[C@@H](N)C(=O)O` [D-alanine]?
performance of metabolite in sensitizing cultures to ampicillin (CFU confirmed cell death) ([1]; cultures treated with ampicillin and metabolite, FIG. 1A): strong; sensitivity of tolerant ΔdadA bacteria to ampicillin on amino acid supplementation alone [2]: equally insensitive to ampicillin; potentiation of ampicillin sensitivity of ΔdadA strain by amino acid [2]: potentiate sensitivity to ampicillin; change of ampicillin MIC on amino acid supplementation [3]: consistently lowered the ampicillin MIC; metabolite-enabled MIC of β-lactams upon metabolite supplementation ([3]; FIG. 1B): lowest observed MICs; metabolite-enabled MIC, D-isomer compared with L-isomer [3]: outperformed their corresponding L-isomers

Which “potentiation of the antibiotic by D-amino acids” value (“potentiation of the antibiotic” for short) [3] does the source give for `N[C@@H]1CONC1=O` [D-cycloserine, reference compound] here?
The value was “specific to β-lactam antibiotics”.

Which results are given for `CSCC[C@@H](N)C(=O)O` [D-methionine]?
sensitization of stationary phase MG1655 to ampicillin in MOPS-rich medium ([1]; MOPS-rich medium, D-methionine added on top of pyruvate, FIG. 3A): further potentiated ampicillin; effect of D-methionine on population density (CFU) ([4]; used alone or in combination with xylose, FIG. 7B): did not increase population density; observed effect size of D-amino acid on β-lactam MIC ([3]; FIG. 1B, FIG. 2C): larger than for D-alanine; restoration of ampicillin sensitivity of resistant (ESBL) E. coli in stationary phase [5]: further potentiated killing by lower drug concentrations

For `O=C(O)[C@H]1CCCN1` [D-proline], which “change of ampicillin MIC, D-amino acid compared with L-isomer” value ([3]; cultures sensitized with pyruvate, alanine pair in dadA mutant, FIG. 2C) is on record?
The value was “less robust than for other D-amino acids”.

`N[C@H](CO)C(=O)O` [D-serine] was tested. Which “metabolite-enabled MIC of β-lactams upon metabolite supplementation” value ([3]; FIG. 1B) did it give?
The value was “lowest observed MICs”.

And the “metabolite-enabled MIC, D-isomer compared with L-isomer” value [3]?
The value was “outperformed their corresponding L-isomers”.

Which results are given for `C[C@H](N)C(=O)O` [L-alanine]?
sensitivity of tolerant ΔdadA bacteria to ampicillin on amino acid supplementation alone [2]: equally insensitive to ampicillin; potentiation of ampicillin sensitivity of ΔdadA strain by amino acid [2]: no such potentiation was observed; change of ampicillin MIC on amino acid supplementation [3]: did not

`CC1(C)S[C@@H]2[C@H](NC(=O)[C@H](N)c3ccccc3)C(=O)N2[C@H]1C(=O)O` [ampicillin, reference compound] was tested. Which “killing of stationary phase cultures by the antibiotic alone” value ([1]; 24 hour treatment with 1 mg/ml ampicillin, cultures grown in LB 24 hours, FIG. 1A) did it give?
Its value is “not killed”.

And the “potentiation of the antibiotic” value [3]?
The value was “specific to β-lactam antibiotics”.

With `O=C[C@@H](O)[C@H](O)[C@H](O)CO` [arabinose] as the compound, how does the “ability of individual carbon source to restore β-lactam antibiotic sensitivity (CFU/mL)” value (“ability of individual carbon source” for short) [1] read?
The value was “varying abilities to restore β-lactam antibiotic sensitivity”.

For `O=C(CO)[C@@H](O)[C@H](O)[C@H](O)CO` [fructose], which “ability of individual carbon source” value [1] is on record?
Its value is “varying abilities to restore β-lactam antibiotic sensitivity”.

Which “ability of individual carbon source” value [1] does the source give for `O=C(O)[C@H](O)[C@@H](O)[C@H](O)[C@H](O)CO` [gluconate] here?
The value was “varying abilities to restore β-lactam antibiotic sensitivity”.

With `OCC(O)CO` [glycerol] as the compound, how does the “ability of individual carbon source” value [1] read?
Its value is “varying abilities to restore β-lactam antibiotic sensitivity”.

With `OC[C@@H](O)[C@@H](O)[C@H](O)[C@H](O)CO` [mannitol] as the compound, how does the “ability of individual carbon source” value [1] read?
Its value is “varying abilities to restore β-lactam antibiotic sensitivity”.

`CCN1CCN(C(=O)N[C@@H](C(=O)N[C@@H]2C(=O)N3[C@@H]2SC(C)(C)[C@@H]3C(=O)O)c2ccccc2)C(=O)C1=O` [piperacillin, reference compound] was tested. Which “sensitization of tolerant bacteria to the antibiotic” value ([1]; metabolic stimulation by pyruvate and potentiation by D-amino acids, FIG. 2G) did it give?
Its value is “sensitized tolerant bacteria”.

`CC1(C)[C@H](C(=O)O)N2C(=O)C[C@H]2S1(=O)=O` [sulbactam, reference compound] was tested. Which “restoration of ampicillin sensitivity of resistant (ESBL) E. coli in stationary phase” value [5] did it give?
The value was “unable to restore sensitivity to ampicillin”.

Which “ability of individual carbon source” value [1] does the source give for `O=C[C@H](O)[C@@H](O)[C@H](O)CO` [xylose] here?
Its value is “varying abilities to restore β-lactam antibiotic sensitivity”.

And the “effect of carbon source on growth and population density (CFU)” value ([4]; cultures grown in 1% LB medium, 10 mM, no antibiotic, FIG. 7A right)?
Its value is “did stimulate growth and an increase in population density”.

What about the “effect of carbon source on population density (CFU)” value ([4]; cultures grown in 100% LB medium, 10 mM, no antibiotic, FIG. 7A left) of the same compound?
The value was “did not lead to an increase in population density”.

Which “potentiation of the antibiotic” value [3] does the source give for gentamicin [reference compound] here?
Its value is “specific to β-lactam antibiotics”.
